Source: patent US20250109120A1, “INDOLINE DERIVATIVES FOR TREATMENT AND/OR PREVENTION OF TUMOR OR CELL PROLIFERATIVE AND FIBROSIS DISEASES” (NATIONAL TAIWAN UNIVERSITY, priority 2023, published 2025)

How the values were obtained:
PC-3 cells = assay: PC-3 SCID mouse model; format: in vivo, mice; conditions: oral, 50 mg/kg q.d., 31 days
Experimental: PC-3 cells (1×10^7 cells) were injected subcutaneously into the flanks of 7-week-old male SCID mice and treated with vehicle or compound k (50 mg/kg) q.d. for 31 days. […] Tumors were excised from each mouse after a 31-day treatment. […] The length is represented by the scale bar as indicated.
(§1) The cells were incubated in lysis buffer for 10 min at 4° C., scraped off, incubated on ice for an additional 10 min and then centrifuged at 17,000 g for 30 min at 4° C. Protein samples were electrophoresed on SDS-PAGE gels, transferred to PVDF membranes and blocked with 5% fat-free milk in PBS for 30 min at room temperature. Immunoblotting was performed overnight with primary antibodies in PBS at 4° C., followed by incubation with HRP-conjugated secondary antibodies for 1 h at room temperature. Bound antibodies will be measured using an ECL reagent and exposed to a photographic film. In the immunoprecipitation assay, cell lysates were immunoprecipitated with 1 μg of antibody and A/G agarose beads overnight at 4° C. After washing the precipitated beads three times with 1 mL ice-cold cell lysis buffer, bound immune complexes were separated by 10% SDS-PAGE and analyzed with immunoblotting.
Tissue sections underwent dewaxing and rehydration. Antigen retrieval was performed by autoclaving the slides in Trilogy solution (Cell Marque, Hot Springs, AR) at 121° C. for 10 min. The slides were blocked with 3% H2O2 and 5% fetal bovine serum, incubated with primary antibodies at 4° C. overnight, and then treated with polymer-HRP reagent (Dako Cytomation, Glostrup, Denmark). activity Peroxidase was visualized using diamino-benzidine tetrahydrochloride solution (DAKO), and sections were counterstained with hematoxylin. Dark brown nuclear staining was defined as positive, no staining was defined as negative.

A549 cells [1] = assay: Nuclear p-Smad3 T179 and RNA polymerase II pS2/S5 after TGF-β1, fractionation and western blot; format: cell-based, human; conditions: compound k 5 μM, senexin A 5 μM, pirfenidone 1 mM; TGF-β1 10 ng/ml 3 h
Experimental: FIGS. 8A-8B show the inhibitory effects of cellular distributions of TGF-β1-induced p-Smad3 T179, RNA polymerase II pS2/S5, and Smad3 after treatment with compound k. Human alveolar epithelial A549 cells were incubated with compound k (5 μM), senexin A (5 μM), or pirfenidone (1 mM) for 1 h, followed by stimulation with TGF-β1 (10 ng/ml) for 3 h. Protein expressions in the cytoplasmic and nuclear fractions were subjected to a Western blot analysis using the indicated antibodies. α-Tubulin and histone H3 served as loading controls for the cytoplasmic and nuclear fractions, respectively. Results are shown as the mean±SEM of three independent experiments. **p<0.01 and ***p<0.001 compared to the control group; #p<0.05 and ##p<0.01 compared to the TGF-β1-treated group.
(§2) Cells (106) were incubated for 10 min at 4° C. in lysis buffer (20 mM HEPES at pH 7.4, 2 mM EGTA, 50 mM β-glycerophosphate, 0.1% Triton X-100, 10% glycerol, 1 mM DTT, 1 μg/mL of leupeptin, 5 μg/mL of aprotinin, 1 mM phenylmethylsulfonyl fluoride, and 1 mM sodium orthovanadate), scraped off, incubated on ice for an additional 10 min, and centrifuged at 17,000 g for 30 min at 4° C. Protein samples (20 μg) were then electrophoresed on SDS-polyacrylamide gel electrophoresis (PAGE) gels and transferred to a nitrocellulose membrane, which was then blocked by incubation for 30 min at room temperature with 5% bovine serum albumin (BSA) in Tris-buffered saline with 0.1% Tween-20 (TBST). Immunoblotting was performed by overnight incubation at 4° C. with primary antibodies in TBST, followed by incubation for 1 h at room temperature with horseradish peroxidase (HRP)-conjugated secondary antibodies. Bound antibodies were measured using enhanced chemiluminescence (ECL) reagent (GE Healthcare, UK) and exposed to photographic film.
A Nuclear/Cytosol Fractionation Kit (Biovision, USA) was used to separate the cytosolic and nuclear fractions. […]

A549 cells [2] = assay: TGF-β1-induced EMT protein expression, western blot; format: cell-based, human; conditions: test compounds 2 μM, senexin A 5 μM, pirfenidone 1 mM; TGF-β1 10 ng/mL
Experimental: FIGS. 4A-4B show the inhibition of epithelial-to-mesenchymal transition protein expressions by CDK8 inhibitors in human alveolar epithelial cells. […] Cell lysates were subjected to a Western blot analysis using the indicated antibodies. Results are shown as the mean t SEM from three independent experiments. *p<0.05, and ***p<0.001 compared to the control group; #p<0.05, ##p<0.01, and ###p<0.001 compared to the TGF-β1-treated group. […] Cell viabilities were determined by an MTT assay. Results are shown as the mean t SEM of three independent experiments.
as §2

DU145 cells = assay: LiCl-induced β-catenin signaling, western blot; format: cell-based, human; conditions: LiCl 20 mM; senexin A 10 μM
Experimental: Inhibitory phosphorylation of GSK3β was evaluated through western blotting. […] Whole-cell lysates were subjected to western blotting with the indicated antibodies. FIGS. 11J-11K show the comparison of basal activities of the Akt/GSK3β axis between PC-3 and DU145 cells. […] The results are shown as the mean±SEM from at least three independent experiments (*p<0.05, **p<0.01, ***p<0.001 vs. control group; #p<0.05, ##p<0.01, and ###p<0.001 vs. relevant control).
as §1

In the case of `CNC(=O)c1cc(Oc2ccc(NS(=O)(=O)c3ccc4c(c3)C(=C(C)C)C(=O)N4)c(F)c2)ccn1` [Compound k, 4-(3-Fluoro-4-((2-oxo-3-(propan-2-ylidene)indoline)-5-sulfonamido)phenoxy)-N-methylpicolinamide], the “binding of CDK8 and p-Smad3 (Thr179), tumor immunoprecipitation” value (PC-3 cells) is reported as “markedly inhibited”, the body weight changes (PC-3 cells) is reported as “no apparent body weight changes” and the “expression of EMT proteins, α-SMA, p-Smad3 (Thr179), active β-catenin, p-STAT1 Ser727 in tumor immunoblots” value (PC-3 cells) is reported as “markedly inhibited”. For the same compound, the “interaction of CDK8 and MED12, tumor immunoprecipitation” value (PC-3 cells) was “did not affect”, the “tumor margin, H&E staining” value (PC-3 cells) was “distinct boundary” and the “vimentin, N-cadherin and Snail levels, IHC staining of tumors” value (PC-3 cells) was “significantly decreased”. For the same compound, the “phosphorylation of p-Smad3 T179 and RNA Pol II pSer2/5” value (A549 cells [1]) was “significantly reversed”, the “TGF-β1-triggered EMT protein expressions” value (A549 cells [2]) was “significant inhibition” and the “levels of active form of β-catenin and Snail” value (DU145 cells) was “reduced the levels”.
